Experiment [1] has as its system Ear Edema Caused by Arachidonic Acid. As to the kind of experiment: Inhibition of Ear Edema Caused by Arachidonic Acid (II), Table 8. Format: in vivo, CF-1 mice. Particulars: i.p., sixty minutes. Here is the method: Inhibition of Ear Edema Caused by Arachidonic Acid (II)
CF-1 mice, 25-30 g body weight, six animals per group, were used. The requisite amount of the test compound was dissolved is dimethyl sulfoxide or 0.5% methylcellulose and 100 μL of the solution was injected intraperitoneally 30 minutes prior to the administration of 100 mg/kg of arachidponic acid. A solution of this irritant, b 100 mg/mL in ethanol, was applied to the surface of the ear, 5 μL to the upper surface and 5 μL to the lower surface. After sixty minutes, the thickness of the ear was measured to 0.01 mm by a micrometer with the loose drag positioned at the lateral-most edge of the mid-point of the pinna. Data were calculated as the percent inhibityion by the test compound of increased ear thickness compared to control animals recieveing only the irritant.

Experiment [2] has as its system Reverse Passive Artus Reaction. As to the kind of experiment: Reverse Passive Artus Reaction (II), Table 11. The note with it: inhibition of blueing; i.p., 100 mg/kg. Format: in vivo, Male CD rats. The procedure: Reverse Passive Artus Reaction (II) Male CD rats weighing between 200 and 250 g were used. […] The animals were anesthetized inhalationally with isoflurane and then injected through the penile vein with 1 mL of a solution of 2.5 mg of Evan's blue dye and 5.0 mg of human serum albumin in 1 mL of saline. This treatment was followed immediately by intracutaneous injections of 0.03 mL of anti-human albumin diluted to contain 3.65 mg of antibody at 3 sites along the midline back. Anesthesia was terminated and after three hours, the animals were sacrificed. The skin was removed and the blue stained areas cut out. The skin patches were soaked overnight in stoppered tubes containing 1 mL of 1 N potassium hydroxide at 37° C. Then 9 mL of a mixture of five parts of a 0.6 N phosphoric acid and thirteen parts of acetone were added to the tubes. The tube contents were agitated and centrifuged, and the absorbance measured at 620 nm. The data were calculated as inhibition of blueing by test compound compared to control animals receiving only antigen and antibody.

Experiment [3] has as its system Ear Edema Caused by Xylene. As to the kind of experiment: Inhibition of Ear Edema Caused by Xylene (II), Table 9. Format: in vivo, CF-1 mice. Particulars: i.p., 2 h. Here is the method: Inhibition of Ear Edema Caused by Xylene (II)
CF-1 mice, 25-30 g body weight, six animals per group, were used. The requisite amount of the test compound was dissolved is dimethyl sulfoxide or 0.5% methylcellulose and 100 μL of the solution was injected intraperitoneally 30 minutes prior to the administration the irritant. The irritant xylene was applied to the surface of the ear, 20 μL to the upper surface and 20 μL to the lower surface, After two hours, the thickness of the ear was measured to 0.01 mm by a micrometer with the loose drag positioned at the lateral-most edge of the mid-point of the pinna. Data were calculated as the percent inhibition by the test compound of increased ear thickness compared to control animals receiving only the irritant.

Experiment [4] has as its system Ear Edema Caused By Tetradecanoylphorbol Acetate. Put plainly: Inhibition of Ear Edema Caused by Tetradecanoylphorbol Acetate (II), Table 7. Format: in vivo, CF-1 Mice. The note with it: 3 h; for % Inhibition Intraperitoneal: i.p. The procedure:
Inhibition of Ear Edema Caused by Tetradecanoylphorbol Acetate (II)
CF-1 Mice, 25-30 g body weight, six animals per group were used. Test compounds were administered intraperitoneally or topically as follows. For intraperitoneal administration, the test compound was dissolved in dimethyl sulfoxide or 0.5% methylcellulose and 100 microliters was injected 30 minutes prior to irritant (100 mg/kg, i.p.). […] A solution of the irritant, tetradecanoylphorbol acetate, 200 μg/mL, was added to the surface of the ear, 5 μL to the upper surface and 5 μL to the lower surface. After three hours, the thickness of the ear was measured to 0.01 mm by a micrometer with loose drag, positioned at the lateral-most edge of the mid-point of the pinna. Data were calculated as the inhibition of increased ear thickness compared to control animals receiving only the irritant.

The subject of experiment [5] is Ear Edema Caused by Oxazolone. Put plainly: Inhibition of Ear Edema Caused by Oxazolone (II), Table 10. Format: in vivo, CF-1 mice. The note with it: i.p., 24 h. Here is the method:
Inhibition of Ear Edema Caused by Oxazolone (II)
CF-1 mice, 25-30 g body weight, five to six animals per group were used. The mice were sensitized to the irritant two weeks prior to the test by dribbling 100 μL of a 3% solution of oxazolone in acetone onto the abdominal skin of the animal. Test compounds were administered intraperitoneally as follows. […] The irritant, 3% oxazolone in acetone, was added to the surface of the ear, 5 μL added to the upper surface and 5 μL added to the lower surface. After twenty four hours, the thickness of the ear was measured to 0.01 mm by a micrometer with loose drag, positioned at the lateral-most edge of the mid-point of the pinna. Data were calculated as the inhibition of increased ear thickness compared to control animals' receiving only the irritant.

Each structure is given as a SMILES string.

By % Inhibition is commonly meant the change of the read-out against control, counted positive when it falls.

Take `CC(C)C[C@H](NC(=O)OCC1c2ccccc2-c2ccccc21)C(=O)OC(C)(C)C` [NPC 15527, N-[(9H-Fluoren-9-ylmethoxy)carbonyl]-L-leucine t-butyl ester]: the “% Inhibition Intraperitoneal” value in experiment [1] (10 mg/kg) is on record as 21%; in experiment [1] (30 mg/kg), 47%; in experiment [1] (110 mg/kg (so in the source)) it was 68%; in experiment [2] it was 4%; in experiment [4] (10 mg/kg) it was 54%; in experiment [4] (30 mg/kg), 54%. Further, the “% Inhibition Intraperitoneal” value in experiment [4] (100 mg/kg) is listed as 74%; in experiment [5] (10 mg/kg), 31%; in experiment [5] (30 mg/kg) it was 33%; in experiment [5] (110 mg/kg (so in the source)), 54%. Besides, the results for the “% Inhibition” value in experiment [3] (10 mg/kg), in experiment [3] (30 mg/kg) and in experiment [3] (100 mg/kg) were 42%, 34% and 50%, respectively.
As for `CNC(=O)[C@H](CC(C)C)NC(=O)OCC1c2ccccc2-c2ccccc21` [NPC 15529, N-[(9H-Fluoren-9-ylmethoxy)carbonyl]-L-leucine methylamide], the “% Inhibition Intraperitoneal” value in experiment [1] (10 mg/kg) is on record as 16%; in experiment [1] (30 mg/kg), 32%; in experiment [1] (100 mg/kg), 29%; in experiment [2] it was 0%; in experiment [4] (10 mg/kg) it was 67%; in experiment [4] (30 mg/kg) it was 67%. For the same molecule, the “% Inhibition Intraperitoneal” value is given as 78% in experiment [4] (100 mg/kg), 32% in experiment [5] (10 mg/kg), 41% in experiment [5] (30 mg/kg) and 76% in experiment [5] (100 mg/kg). In addition, the “% Inhibition” value stood at 50% in experiment [3] (10 mg/kg), 47% in experiment [3] (30 mg/kg) and 50% in experiment [3] (100 mg/kg).
Take `CC(C)(C)[C@H](NC(=O)OCC1c2ccccc2-c2ccccc21)C(=O)O` [NPC 15573, N-[(9H-Fluoren-9-ylmethoxy)carbonyl]-L-tert-leucine]: the “% Inhibition Intraperitoneal” value is recorded as 27% in experiment [1] (10 mg/kg); 32% in experiment [1] (30 mg/kg); 42% in experiment [1] (100 mg/kg); 50% in experiment [2]; 39% in experiment [4] (10 mg/kg); 52% in experiment [4] (30 mg/kg). Further, the “% Inhibition Intraperitoneal” value in experiment [4] (100 mg/kg) turned out to be 75%; in experiment [5] (30 mg/kg), 28%; in experiment [5] (100 mg/kg) it was 48%. The “% Inhibition” value in experiment [3] (10 mg/kg) came to 23%; in experiment [3] (30 mg/kg), 17%. In addition, the results for the “% Inhibition, topical” value in experiment [4] (dose 10 (mg/kg)), in experiment [4] (dose 30 (mg/kg)) and in experiment [4] (dose 100 (mg/kg)) were 20%, 31% and 38%, respectively.
For `Cc1cccc2c1C(COC(=O)N[C@@H](CC(C)C)C(=O)O)c1ccccc1-2` (stereo partly drawn) [NPC 15638, N-{[9H-(1-Methylfluoren-9-yl)methoxy]carbonyl}-L-leucine], the “% Inhibition Intraperitoneal” value in experiment [1] (100 mg/kg) is listed as 65%; in experiment [2], 68%; in experiment [4] (10 mg/kg), 23%; in experiment [4] (30 mg/kg) it was 12%; in experiment [4] (100 mg/kg), 62%; in experiment [5] (30 mg/kg), 67%. Besides, the “% Inhibition Intraperitoneal” value in experiment [5] (100 mg/kg) was found to be 74%. Moreover, the “% Inhibition” value in experiment [3] (10 mg/kg) stood at 37%; in experiment [3] (30 mg/kg) it was 66%; in experiment [3] (100 mg/kg), 82%.
Take `CCCC[C@H](NC(=O)OCC1c2ccccc2-c2ccccc21)C(=O)O` [NPC 15667, N-[9H-(Fluorenyl-9-ylmethoxy)carbonyl]-L-norleucine]: the “% Inhibition Intraperitoneal” value in experiment [1] (10 mg/kg) was 7%; in experiment [1] (30 mg/kg) it was 57%; in experiment [1] (100 mg/kg) it was 65%; in experiment [2], 63%; in experiment [4] (10 mg/kg), -80%; in experiment [4] (30 mg/kg), 72%. For the same molecule, the “% Inhibition Intraperitoneal” value in experiment [5] (10 mg/kg) worked out at 13%; in experiment [5] (30 mg/kg) it was 15%; in experiment [5] (100 mg/kg) it was 71%. Also, the “% Inhibition” value is 22% in experiment [3] (10 mg/kg), 57% in experiment [3] (30 mg/kg) and 80% in experiment [3] (100 mg/kg).

The values are drawn from US5079260A, “Method for treating inflammation and compounds and compositions suitable for use therein” (Nova Pharmaceutical Corporation, priority 1990, dated 1992).
